# Reference: patent publication US20140329863A1 (priority 2011, published 2014)
# Read-outs that look alike come from different tables or passages of the source.
# Tests used:
# CYP2D6 = target: T1, CYP2D6 (Homo sapiens, UniProt P10635); test: CYP phenotyping in human liver microsomes, quinidine; assay type: in vitro ADME; details: for CYP Involvement: CYP2D6, NADPH + Quinidine; for % Disappearance / Measured Conc. / Δ % Disappearance: reversible incubation condition, NADPH + Quinidine
# T1 construct: tissue BD Biosciences; host or cells: pooled human liver microsomes
# T1 sequence (P10635 whole entry): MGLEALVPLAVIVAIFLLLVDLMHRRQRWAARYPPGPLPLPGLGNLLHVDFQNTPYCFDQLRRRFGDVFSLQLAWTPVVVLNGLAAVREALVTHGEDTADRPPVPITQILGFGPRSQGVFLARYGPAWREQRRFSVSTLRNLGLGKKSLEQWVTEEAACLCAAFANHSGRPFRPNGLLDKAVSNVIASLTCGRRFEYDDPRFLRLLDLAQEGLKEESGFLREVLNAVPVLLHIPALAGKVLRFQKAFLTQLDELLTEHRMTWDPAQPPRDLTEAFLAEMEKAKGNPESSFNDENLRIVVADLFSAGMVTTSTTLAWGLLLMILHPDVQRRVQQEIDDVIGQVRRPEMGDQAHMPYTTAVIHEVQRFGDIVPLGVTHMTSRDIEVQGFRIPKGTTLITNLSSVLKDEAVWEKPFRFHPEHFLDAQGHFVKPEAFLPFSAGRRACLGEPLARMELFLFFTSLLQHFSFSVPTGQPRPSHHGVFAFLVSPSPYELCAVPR
# CYP2C9 = target: T2, CYP2C9 (Homo sapiens, UniProt P11712); test: CYP phenotyping in human liver microsomes, sulphaphenazol; assay type: in vitro ADME; details: for CYP Involvement: CYP2C9, NADPH + Sulphaphenazol; for % Disappearance / Measured Conc. / Δ % Disappearance: reversible incubation condition, NADPH + Sulphaphenazol
# T2 construct: tissue BD Biosciences; host or cells: pooled human liver microsomes
# T2 sequence (P11712 whole entry): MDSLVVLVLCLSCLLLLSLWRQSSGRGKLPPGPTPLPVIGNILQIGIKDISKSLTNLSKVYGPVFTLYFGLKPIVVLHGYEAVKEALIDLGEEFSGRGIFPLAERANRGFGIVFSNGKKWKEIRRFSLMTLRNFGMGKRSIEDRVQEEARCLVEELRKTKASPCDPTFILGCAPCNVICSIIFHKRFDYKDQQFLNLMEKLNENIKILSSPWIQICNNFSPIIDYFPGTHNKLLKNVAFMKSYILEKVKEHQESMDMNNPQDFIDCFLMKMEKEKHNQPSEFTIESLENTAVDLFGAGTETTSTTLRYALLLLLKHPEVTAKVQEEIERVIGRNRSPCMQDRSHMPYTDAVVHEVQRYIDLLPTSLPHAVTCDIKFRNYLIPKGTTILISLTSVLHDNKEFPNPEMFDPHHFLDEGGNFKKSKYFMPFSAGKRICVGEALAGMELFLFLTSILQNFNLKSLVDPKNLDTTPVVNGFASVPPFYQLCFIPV
# in vitro = details: FVB, mouse, 20% brain homogenate, pH 7.4, nonbound free fraction in brain, 1 and 10 μM
# [1] = 1 and 10 μM
# [2] = test system: MDCK-MDR^1 cells (P-glycoprotein); test: Bidirectional MDCK-MDR1 cell permeability; assay type: in vitro ADME, canine
# Method: MDCK-MDR^1 cells were grown to confluence for 5-10 days on 1-μm filters in 24-well plates {Hilgers, 1990}. Aliquots of DMSO stocks were diluted into Hank's balanced salt solution (HBSS), pH 7.4, containing […] to give 10-μM solute concentration. The solute containing donor solutions were transferred to either the apical or basolateral chamber of the permeability diffusion apparatus. Receiver solutions consisted of HBSS (pH 7.4) containing 25 mM HEPES+0.05% PS80. Sequential samples of transported solute were taken at 20-min intervals using an automated liquid handling platform. The concentration of transported solute during each sampling interval was determined by HPLC/UV/MS. Permeability coefficients were calculated for each sampling interval. The average and standard deviation from the intervals are reported. Mass balance in the system was ascertained by comparing the sum of total transported solute and remaining donor solute with the starting mass of solute and is expressed as a percentage of donor solute at time zero. […] In the event of mass balance less than 70%, the cell monolayers were extracted with ACN and analyzed for the solute of interest. Determinations were conducted in duplicate.
# Binding in mouse plasma = details: for Percentage binding, Mouse plasma, 1 μM / Unbound (%), Mouse Plasma: 1 μM; for Unbound (%), Mouse Plasma: mean ± SD, n = 3 (warfarin n = 2)
# CYP2C19 [3] = target: CYP2C19 (Homo sapiens, UniProt P33261); details: for CYP Involvement: CYP2C19, NADPH + N-3-B; for Δ % Disappearance: reversible incubation condition, NADPH + N-3-B
# CYP2C19 (Homo sapiens, UniProt P33261), sequence (P33261 whole entry): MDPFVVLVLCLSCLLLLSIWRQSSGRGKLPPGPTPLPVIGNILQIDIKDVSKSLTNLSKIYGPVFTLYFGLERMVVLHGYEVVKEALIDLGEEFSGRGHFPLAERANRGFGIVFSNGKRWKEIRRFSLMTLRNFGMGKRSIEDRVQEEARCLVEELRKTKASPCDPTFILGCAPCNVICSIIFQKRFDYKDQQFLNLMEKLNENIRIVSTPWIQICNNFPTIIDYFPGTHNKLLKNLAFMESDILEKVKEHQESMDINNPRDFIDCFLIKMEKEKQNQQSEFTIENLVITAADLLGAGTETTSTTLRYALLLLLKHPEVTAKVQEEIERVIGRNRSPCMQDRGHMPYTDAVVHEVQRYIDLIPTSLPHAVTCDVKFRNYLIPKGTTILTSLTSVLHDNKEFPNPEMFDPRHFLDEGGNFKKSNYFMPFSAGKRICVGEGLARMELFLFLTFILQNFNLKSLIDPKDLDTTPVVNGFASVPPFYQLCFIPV
# CYP2C19 [4] = details: reversible incubation condition, NADPH + N-3-B
# [5] = Single-dose pharmacokinetic studies in female FVB mice (PO, IV, IP); assay type: in vivo, mouse; details: mouse; for bioavailability / Kp: female, 10 mg/kg; for bioavailability: FVB, mice, IV 1 mg/kg, oral 10 mg/kg, read-out: oral (absolute) bioavailability; for Kp: brain and plasma, FVB mice, single oral dose, read-out: brain:plasma AUClast ratio
# Method: For in-vivo pharmacokinetic studies, compounds were dissolved in a formulation containing 20% propylene glycol, 5% ethanol, 5% labrosol, and 70% polyethylene glycol 400 (PEG400) and administered by oral gavage to female FVB mice weighing ˜25 g. At specified time points after dosing (0.25, 0.5, 1, 2, 4, 6, and 24 h), 2 animals were euthanized by CO2, and ˜1 mL blood (by cardiac puncture) and brain samples were collected. The heparinized blood samples were centrifuged to obtain plasma, which was stored at −80° C. until analysis. Brain samples were weighed, diluted […] with water, and then homogenized using a Precellys 24 tissue homogenizer. Brain homogenates (20% wt/vol) were stored at −80° C. until analysis. Pharmacokinetic protocols involving animals were all reviewed and approved by the UCSF institutional animal care and use committee (IACUC).
# (§1) Plasma and brain homogenate samples were extracted using a protein-precipitation method and analyzed by specific LC/MS/MS methods developed for each compound dosed in vivo. The analytical method accuracy and precision were monitored by analyzing quality control (QC) samples that were prepared and treated using the same methods as calibration standards for the plasma or brain homogenate samples.
# The data were used to calculate the area under the concentration-time curve (AUClast) by noncompartmental analysis with sparse sampling performed using Phoenix WinNonlin 6.1 software (Pharsight, Mountain View, Calif.).
# Pharmacokinetic protocols employing mice were reviewed and approved by the UCSF Institutional Animal Care and Use Committee (IACUC). Female FVB mice, weighing approximately 25 g, were used for all in vivo pharmacokinetic studies. Mice were housed with free access to food and water, and were maintained on 12-h light/dark cycles for 1 week before dosing studies were initiated.
# For the single-dose of 40 mg/kg, compounds were dissolved in a formulation containing 5% propylene glycol, […] α-tocopheryl polyethylene glycol 1000 succinate (TPGS) and 70% polyethylene glycol 400 (PEG400), and administered by oral gavage. Two animals per time point were used. At specified time points after dosing (0.5, 1, 2, 4, 6, and 24 h), animals were euthanized by CO2, and blood for plasma (by cardiac puncture) and brain samples were collected. The heparinized blood samples were centrifuged to obtain plasma. Brain samples were weighed, diluted 10-fold with water, and then homogenized using a Precellys 24 tissue homogenizer. The brain and plasma samples were flash-frozen on dry ice and then stored at −80° C. until analysis. For the single-dose administration at 10 mg/kg, compounds were dissolved in a formulation containing 20% propylene glycol, 5% ethanol, 5% labrosol, and 70% PEG400, and administered by oral gavage. Two animals per time point were used. At specified time points after dosing (0.25, 0.5, 1, 2, 4, 6, and 24 h), animals were euthanized by CO2, and blood for plasma (by cardiac puncture) and brain samples were collected. The heparinized blood samples were centrifuged to obtain plasma. Brain samples were weighed, diluted five-fold with water, and then homogenized using a Precellys 24 tissue homogenizer. The brain and plasma samples were flash-frozen on dry ice and then stored at −80° C. until analysis.
# Compounds were administered through tail vein injection. Two animals per time point were used. At specified time points after dosing (5 min, 0.25, 0.5, 1, 2, 4, and 6 h), animals were euthanized by CO2. Blood and brain samples were obtained and processed as described above for the oral dosing at 40 mg/kg.
# as §1, with “by” for “and treated using”, “as” for “as calibration standards for”, “samples. […]” for “samples.”
# CYP3A4 = target: T3, CYP3A4 (Homo sapiens, UniProt P08684); test: CYP phenotyping in human liver microsomes, ketoconazole; assay type: in vitro ADME; details: for CYP Involvement: CYP3A4, NADPH + Ketoconazole; for % Disappearance / Measured Conc. / Δ % Disappearance: reversible incubation condition, NADPH + Ketoconazole
# T3 construct: tissue BD Biosciences; host or cells: pooled human liver microsomes
# T3 sequence (P08684 whole entry): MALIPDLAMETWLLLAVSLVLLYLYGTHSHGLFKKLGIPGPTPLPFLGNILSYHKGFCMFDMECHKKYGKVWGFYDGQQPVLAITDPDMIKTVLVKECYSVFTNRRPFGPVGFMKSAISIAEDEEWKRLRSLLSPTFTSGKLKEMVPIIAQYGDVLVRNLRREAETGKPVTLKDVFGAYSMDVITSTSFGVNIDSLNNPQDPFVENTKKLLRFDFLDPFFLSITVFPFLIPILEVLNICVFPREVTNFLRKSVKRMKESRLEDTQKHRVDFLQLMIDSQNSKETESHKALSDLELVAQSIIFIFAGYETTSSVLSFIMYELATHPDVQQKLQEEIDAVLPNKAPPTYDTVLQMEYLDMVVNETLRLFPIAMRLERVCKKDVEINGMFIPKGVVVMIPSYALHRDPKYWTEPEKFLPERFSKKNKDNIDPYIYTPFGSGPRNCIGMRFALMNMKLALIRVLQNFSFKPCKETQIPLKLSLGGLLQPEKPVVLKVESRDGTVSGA
Compound,CYP Involvement (CYP2D6),% Disappearance (CYP2D6) [%],Measured Conc. (CYP2D6) [µM],Δ % Disappearance (CYP2D6),CYP Involvement (CYP2C9),% Disappearance (CYP2C9) [%],Measured Conc. (CYP2C9) [µM],Δ % Disappearance (CYP2C9),fraction unbound at 4 h (in vitro),brain tissue binding [1],"P-gp substrate status, absorptive vs secretory permeability [2]","Percentage binding, Mouse plasma, 1 μM (Binding in mouse plasma) [%]","Unbound (%), Mouse Plasma (Binding in mouse plasma) [%]","Percentage binding, Mouse plasma, 10 μM (Binding in mouse plasma) [%]",CYP Involvement (CYP2C19 [3]),Δ % Disappearance (CYP2C19 [3]),% Disappearance (CYP2C19 [4]) [%],Measured Conc. (CYP2C19 [4]) [µM],"bioavailability ([5]; plasma, po) [%]",Kp [5],further results
"Cc1cccc(Nc2nc(-c3ccc(-c4ccccc4)cc3)cs2)n1 [IND24, (4-Biphenyl-4-yl-thiazol-2-yl)-(6-methyl-pyridin-2-yl)-amine]",Unlikely (unlikely for values <5),15,0.555,0 (−15) %,Unlikely (unlikely for values <5),14,0.566,0 (−14) %,0.06 to 0.09,92-93%,not substrates,93.4 ± 1.55,6.63 ± 1.55,95.8 ± 0.14,Unlikely (unlikely for values <5),0 (−18) %,18,0.537,40,2.6,"bioavailability ([5]; plasma, oral): 27 to 40%; half-life ([5]; plasma, female FVB mice, 1 mg/kg IV): 2 h; CYP Involvement (CYP3A4): Unlikely (unlikely for values <5); % Disappearance (CYP3A4): 15%; Measured Conc. (CYP3A4): 0.557 µM; Δ % Disappearance (CYP3A4): 0 (−15) %"
"Cc1ccnc(Nc2nc(-c3ccc(-c4ccccn4)s3)cs2)c1 [IND81, (4-Methyl-pyridin-2-yl)-[4-(5-pyridin-2-yl-thiophen-2-yl)-thiazol-2-yl]-amine]",Likely (likely for values >10),55,0.300,11%,Unlikely (unlikely for values <5),64,0.238,1.8%,0.06 to 0.09,~90%,not substrates,93.5 ± 1.10,6.48 ± 1.10,96.0 ± 0.04,Possible (possible for values 5-10),8.5%,57,0.283,25 to 27,5.5,"bioavailability ([5]; plasma, oral): 27 to 40%; CYP Involvement (CYP3A4): Likely (likely for values >10); % Disappearance (CYP3A4): 51%; Measured Conc. (CYP3A4): 0.324 µM; Δ % Disappearance (CYP3A4): 15%"
"C(=N\Nc1ccc(-c2cnco2)cc1)/c1ccncc1 [IND54304, reference compound]",–,–,–,–,–,–,–,–,–,–,–,–,–,–,–,–,–,–,25 to 27,0.5,–
